In paper PMC5618341, “Controlled inhibition of methyltransferases using photoswitchable peptidomimetics: towards an epigenetic regulation of leukemia” (Chemical Science, 2017):
Where two headings read alike, the source gives them in different places. Starred links: 1 amine or outer side, 2 acyl side, 3 side chain; linkers in the order of their positions; H or OH if unused. Positions of bridges follow the written chain, without caps; N, C: chain ends. Non-standard residues stand in square brackets, D forms with d. Residues, ends and D or L forms follow the SMILES beside them. *: point of attachment. AMPB(E) = O=C(c1ccc(/N=N/c2ccc(CN[*:1])cc2)cc1)[*:2]; AMPB = O=C(c1ccc(N=Nc2ccc(CN[*:1])cc2)cc1)[*:2]; X1 = O=C(c1ccc(/N=N\c2ccc(CN[*:1])cc2)cc1)[*:2]; d(αMeK) = C[C@@](N)(CCCCN)C(=O)O; dPhg = N[C@@H](C(=O)O)c1ccccc1; Isobutyryl = CC(C)C(=O)*; Abu = CC[C@H](N)C(=O)O; Ahx = NCCCCCC(=O)O; βAla = NCCC(=O)O

Key:
[1] = test system: MLL-AF9-transduced mouse bone marrow cells; test: Proliferation / cell viability assay (CellTiter-Glo); format: cell-based; conditions: for Inhibition (%) of growth: 5 μM
Method: (§1) We initially studied the cellular uptake and cell viability of our compounds in murine MLL-AF9-transduced mouse bone marrow cells (Fig. 5). In line with our expectations, peptidomimetics 16 and 17 that contained peptide 7 within their sequence are the ones that inhibited the cell proliferation of leukemia. […] Thus, while in the case of the trans isomer of peptidomimetic 16 we already determined less than 50% of viable cells at 2.5 μM concentration, with the WIN-containing conjugates 20 and 21 we measured 87% and 96% of viable cells at 50 μM concentration, respectively.
(§2) We then examined the potential of 16 and 17 to control externally the cellular response in proliferation assays. Thus, both isomers of both peptidomimetics were incubated at different concentrations for four days. After two days of incubation, the cells containing the cis isomers were irradiated at 430 nm for 90 seconds in a single isomerization cycle with a custom-made 6-well plate LED array.
(§3) MLL-AF9-transduced mouse bone marrow was cultured in IMDM medium + 15% FBS and supplemented with 10 ng/mL interleukin-3 (IL-3) at each passage, every other day.
(§4) DMSO) isomers, of peptides 7, 16, 17, as well as the peptides 18 and 19 were diluted from stock to culture media containing a 0.1% DMSO final concentration. For viability assays, […]
(§5) 72 h and DMSO as control . For the cis-trans group, after 48 h treatment with cis peptides, the plate was irradiated at […] for 90 sec and continued to culture for 2 days in the dark.
(§6) Viability was determined using the CellTiter-Glo Kit (Promega) according to the a a ’ d . was monitored on a Molecular Devices plate reader.

[2] = molecular target: MLL1 core complex (MLL1, WDR5, RbBP5, and ASH2L) (Homo sapiens, UniProt P61964); test: biochemical
Method: To test this, we studied the inhibition of MLL1 H3K4 methyltransferase activity through the previously reported in vitro HMT assay using the MLL1 core complex (i.e. MLL1, WDR5, RbBP5, and ASH2L) and the H3 20mer peptide as substrate.[17]
In Vitro Methyl Transferase Assay with MLL1 Core Complex
In Vitro Histone Methyltransferase (HMT) Assay
The HMT assay was performed, as previously described[25] with slight modifications, in 50 mM Tris pH 8.0, 50 mM NaCl, 1.0 mM DTT, 5 mM MgCl2 at room temperature. Each reaction contained 1.5 μM of the cofactor 3H-S-adenosylmethionine (Perkin-Elmer). H31-21 peptide was used as the substrate at 250 μM. […] Reactions were initiated by addition of the H3/SAM and allowed to proceed for 60 min before preparing scintillation counting. To count samples, reactions were spotted on separate squares of P81 filter paper (Millipore) and precipitated by submerging in freshly prepared 50 mM sodium bicarbonate buffer pH = 9.0. After washing and drying, the samples were vortexed in Ultima Gold scintillation fluid and counted.

WDR5Δ23 = molecular target: T1, WDR5Δ23 (Homo sapiens, UniProt P61964); test: Fluorescence polarization (FP)-based competitive binding assay
T1 construct: His6-SUMO (N, cleaved yes); made in house; host or cells: E. coli DH5α (so in the source)

[3] = Proliferation / cell viability assay (CellTiter-Glo); format: cell-based, mouse
Method: as §1, §2, §3, §4, §5, §6

[4] = IC50 cis (with 5 nM tracer), cis isomer (366 nm), 20 nM WDR5Δ23, 5 nM tracer 22
[5] = IC50 trans (with 5 nM tracer), trans isomer, 20 nM WDR5Δ23, 5 nM tracer 22
[6] = non-irradiated peptide (trans isomer), 72 nM WDR5Δ23, 20 nM tracer 22, read-out: IC50, non-irradiated (trans)
[7] = non-irradiated peptide (trans isomer), 72 nM WDR5Δ23, 20 nM tracer 22, read-out: Ki, non-irradiation (trans)

Row | Molecule | IC50 (WDR5Δ23; [6]) [µM] | Ki (WDR5Δ23; [7]) [µM] | further results
1 | CC(C)C[C@H](NC(=O)[C@H](Cc1c[nH]cn1)NC(=O)[C@@H](NC(=O)c1ccc(/N=N\c2ccc(CNC(=O)[C@H](C)NC(=O)[C@H](CCCNC(=N)N)NC(=O)[C@H](C)NC(=O)[C@@H](N)CO)cc2)cc1)C(C)C)C(=O)N[C@@H](CCCNC(=N)N)C(=O)N[C@@H](CCCCN)C(=O)N[C@@H](CO)C(N)=O [7cis, H2N-SARAXVHLRKS-CONH2] (H-SARA[X1]VHLRKS-NH2) |  |  | Inhibition (%) of growth ([1]; 96 h incubation): ≈ 0%; IC50 [2]: 8.23 ± 0.38 µM; IC50 (WDR5Δ23; [4]): 0.147 ± 0.014 µM
2 | CC(C)C[C@H](NC(=O)[C@H](Cc1c[nH]cn1)NC(=O)[C@@H](NC(=O)c1ccc(/N=N/c2ccc(CNC(=O)[C@H](C)NC(=O)[C@H](CCCNC(=N)N)NC(=O)[C@H](C)NC(=O)[C@@H](N)CO)cc2)cc1)C(C)C)C(=O)N[C@@H](CCCNC(=N)N)C(=O)N[C@@H](CCCCN)C(=O)N[C@@H](CO)C(N)=O [7trans, H2N-SARAXVHLRKS-CONH2] (H-SARA[AMPB(E)]VHLRKS-NH2) |  |  | Inhibition (%) of growth ([1]; 96 h incubation): 0%; IC50 [2]: 0.531 ± 0.023 µM; IC50 (WDR5Δ23; [5]): 0.057 ± 0.011 µM
3 | CC(C)C[C@H](NC(=O)[C@H](Cc1c[nH]cn1)NC(=O)[C@@H](NC(=O)c1ccc(/N=N\c2ccc(CNC(=O)[C@H](C)NC(=O)[C@H](CCCNC(=N)N)NC(=O)[C@H](C)NC(=O)[C@@H](N)CO)cc2)cc1)C(C)C)C(=O)N[C@@H](CCCNC(=N)N)C(=O)N[C@@H](CCCCN)C(=O)N[C@@H](CO)C(=O)N[C@@H](CCCNC(=N)N)C(=O)N[C@@H](CCCNC(=N)N)C(=O)N[C@@H](CCCNC(=N)N)C(=O)N[C@@H](CCCNC(=N)N)C(=O)N[C@@H](CCCNC(=N)N)C(=O)N[C@@H](CCCNC(=N)N)C(=O)N[C@@H](CCCNC(=N)N)C(=O)N[C@@H](CCCNC(=N)N)C(N)=O [16cis, H2N-SARA-AMPB-VHLRKS-R8-NH2] (H-SARA[X1]VHLRKSRRRRRRRR-NH2) |  |  | GI50 ([1]; 96 h): 2.88 ± 0.24 µM
4 | CC[C@@H]1NC(=O)[C@H](CCCN=C(N)N)NC(=O)[C@](C)(NC(=O)C(C)C)CCCCNC(=O)[C@@H](c2ccccc2)NC1=O [MM401, reference compound] (Isobutyryl-[d(αMeK)]R[Abu][dPhg]; lactam 1-C) |  |  | GI50 ([1]; 96 h incubation, cis isomers kept in the dark, read-out: GI50): 9.76 µM
5 | CC(C)C[C@H](NC(=O)[C@H](Cc1c[nH]cn1)NC(=O)[C@@H](NC(=O)[C@H](CCC(=O)O)NC(=O)[C@H](C)NC(=O)[C@H](CCCNC(=N)N)NC(=O)c1ccc(N=Nc2ccc(CNC(=O)[C@@H](N)CO)cc2)cc1)C(C)C)C(=O)N[C@@H](CCCNC(=N)N)C(=O)N[C@@H](CCCCN)C(=O)N[C@@H](CO)C(N)=O [peptide 5, H2N-SXRAEVHLRKS-CONH2] (H-S[AMPB]RAEVHLRKS-NH2) | 3.91 ± 0.83 | 0.0668 ± 0.01 | 
6 | CC(C)C[C@H](NC(=O)[C@H](Cc1c[nH]cn1)NC(=O)c1ccc(N=Nc2ccc(CNC(=O)[C@H](CCC(=O)O)NC(=O)[C@H](C)NC(=O)[C@H](CCCNC(=N)N)NC(=O)[C@H](C)NC(=O)[C@@H](N)CO)cc2)cc1)C(=O)N[C@@H](CCCNC(=N)N)C(=O)N[C@@H](CCCCN)C(=O)N[C@@H](CO)C(N)=O [peptide 8, H2N-SARAEXHLRKS-CONH2] (H-SARAE[AMPB]HLRKS-NH2) | 0.21 ± 0.035 | 0.0024 ± 0.0006 | 
7 | CC(C)C[C@H](NC(=O)c1ccc(N=Nc2ccc(CNC(=O)[C@@H](NC(=O)[C@H](CCC(=O)O)NC(=O)[C@H](C)NC(=O)[C@H](CCCNC(=N)N)NC(=O)[C@H](C)NC(=O)[C@@H](N)CO)C(C)C)cc2)cc1)C(=O)N[C@@H](CCCNC(=N)N)C(=O)N[C@@H](CCCCN)C(=O)N[C@@H](CO)C(N)=O [peptide 9, H2N-SARAEVXLRKS-CONH2] (H-SARAEV[AMPB]LRKS-NH2) | 2.53 ± 0.39 | 0.0404 ± 0.0039 | 
8 | CC(C)[C@H](NC(=O)[C@H](CCC(=O)O)NC(=O)[C@H](C)NC(=O)[C@H](CCCNC(=N)N)NC(=O)[C@H](C)NC(=O)[C@@H](N)CO)C(=O)N[C@@H](Cc1c[nH]cn1)C(=O)NCc1ccc(N=Nc2ccc(C(=O)N[C@@H](CCCNC(=N)N)C(=O)N[C@@H](CCCCN)C(=O)N[C@@H](CO)C(N)=O)cc2)cc1 [peptide 10, H2N-SARAEVHXRKS-CONH2] (H-SARAEVH[AMPB]RKS-NH2) | 1.15 ± 0.12 | 0.017 ± 0.0019 | 
9 | CC(C)C[C@H](NC(=O)[C@H](Cc1c[nH]cn1)NC(=O)[C@@H](NC(=O)[C@H](CCC(=O)O)NC(=O)[C@H](C)NC(=O)[C@H](CCCNC(=N)N)NC(=O)[C@H](C)NC(=O)[C@@H](N)CO)C(C)C)C(=O)NCc1ccc(N=Nc2ccc(C(=O)N[C@@H](CCCCN)C(=O)N[C@@H](CO)C(N)=O)cc2)cc1 [peptide 11, H2N-SARAEVHLXKS-CONH2] (H-SARAEVHL[AMPB]KS-NH2) | 2.14 ± 0.28 | 0.0328 ± 0.0045 | 
10 | CC(C)C[C@H](NC(=O)[C@H](Cc1c[nH]cn1)NC(=O)[C@@H](NC(=O)[C@H](CCC(=O)O)NC(=O)[C@H](C)NC(=O)[C@H](CCCNC(=N)N)NC(=O)[C@H](C)NC(=O)[C@@H](N)CO)C(C)C)C(=O)N[C@@H](CCCNC(=N)N)C(=O)NCc1ccc(N=Nc2ccc(C(=O)N[C@@H](CO)C(N)=O)cc2)cc1 [peptide 12, H2N-SARAEVHLRXS-CONH2] (H-SARAEVHLR[AMPB]S-NH2) | 1.32 ± 0.11 | 0.0198 ± 0.0017 | 
11 | CC(C)C[C@H](NC(=O)[C@H](Cc1c[nH]cn1)NC(=O)c1ccc(N=Nc2ccc(CNC(=O)[C@H](C)NC(=O)[C@H](CCCNC(=N)N)NC(=O)[C@H](C)NC(=O)[C@@H](N)CO)cc2)cc1)C(=O)N[C@@H](CCCNC(=N)N)C(=O)N[C@@H](CCCCN)C(=O)N[C@@H](CO)C(N)=O [peptide 13, H2N-SARAXHLRKS-CONH2] (H-SARA[AMPB]HLRKS-NH2) | 0.293 ± 0.05 | 0.00363 ± 0.0008 | 
12 | CC(=O)N[C@@H](C)C(=O)N[C@@H](CCCNC(=N)N)C(=O)N[C@@H](C)C(=O)NCc1ccc(N=Nc2ccc(C(=O)N[C@H](C(=O)N[C@@H](Cc3c[nH]cn3)C(=O)N[C@@H](CC(C)C)C(=O)N[C@@H](CCCNC(=N)N)C(=O)N[C@@H](CCCCN)C(=O)N[C@@H](CO)C(N)=O)C(C)C)cc2)cc1 [peptide 14, Ac-ARAXVHLRKS-CONH2] (Ac-ARA[AMPB]VHLRKS-NH2) |  | 0.00145 ± 0.00052 | IC50 (WDR5Δ23; [4]): 0.102 ± 0.015 µM; IC50 (WDR5Δ23; [5]): 0.045 ± 0.011 µM; Ki (WDR5Δ23; Ki cis (with 5 nM tracer), cis isomer (366 nm), 20 nM WDR5Δ23, 5 nM tracer 22): 0.0045 ± 0.00082 µM; Ki (WDR5Δ23; Ki trans (with 5 nM tracer), trans isomer, 20 nM WDR5Δ23, 5 nM tracer 22): 0.0015 ± 0.00063 µM
13 | CC(=O)N[C@@H](C)C(=O)N[C@@H](CCCNC(=N)N)C(=O)N[C@H](C(=O)NCc1ccc(N=Nc2ccc(C(=O)N[C@H](C(=O)N[C@@H](Cc3ccc(O)cc3)C(N)=O)C(C)C)cc2)cc1)[C@@H](C)O [peptide 15, Ac-ARTXVY-CONH2] (Ac-ART[AMPB]VY-NH2) | 0.109 ± 0.01 | 0.000767 ± 0.00015 | 
14 | CC(C)C[C@H](NC(=O)[C@H](Cc1c[nH]cn1)NC(=O)[C@@H](NC(=O)[C@H](CCC(=O)O)NC(=O)[C@H](C)NC(=O)[C@H](CCCNC(=N)N)NC(=O)[C@H](C)NC(=O)[C@@H](N)CO)C(C)C)C(=O)N[C@@H](CCCNC(=N)N)C(=O)N[C@@H](CCCCN)C(=O)N[C@@H](CO)C(=O)N[C@@H](CCCNC(=N)N)C(=O)N[C@@H](CCCNC(=N)N)C(=O)N[C@@H](CCCNC(=N)N)C(=O)N[C@@H](CCCNC(=N)N)C(=O)N[C@@H](CCCNC(=N)N)C(=O)N[C@@H](CCCNC(=N)N)C(=O)N[C@@H](CCCNC(=N)N)C(=O)N[C@@H](CCCNC(=N)N)C(N)=O [peptide 20] (H-SARAEVHLRKSRRRRRRRR-NH2) | 0.368 ± 0.02 | 0.00483 ± 0.00031 | viability at 50 µM [3]: 87%
15 | CC(C)C[C@H](NC(=O)[C@H](Cc1c[nH]cn1)NC(=O)[C@@H](NC(=O)[C@H](CCC(=O)O)NC(=O)[C@H](C)NC(=O)[C@H](CCCNC(=N)N)NC(=O)[C@H](C)NC(=O)[C@@H](N)CO)C(C)C)C(=O)N[C@@H](CCCNC(=N)N)C(=O)N[C@@H](CCCCN)C(=O)N[C@@H](CO)C(=O)N[C@@H](CCCNC(=N)N)C(=O)NCCCCCC(=O)N[C@@H](CCCNC(=N)N)C(=O)N[C@@H](CCCNC(=N)N)C(=O)NCCCCCC(=O)N[C@@H](CCCNC(=N)N)C(=O)N[C@@H](CCCNC(=N)N)C(=O)NCCCCCC(=O)N[C@@H](CCCNC(=N)N)C(=O)N[C@@H](CCCNC(=N)N)C(=O)NCCCCCC(=O)N[C@@H](CCCNC(=N)N)C(=O)NCCCCCC(=O)NCCC(N)=O [peptide 21] (H-SARAEVHLRKSR[Ahx]RR[Ahx]RR[Ahx]RR[Ahx]R[Ahx][βAla]-NH2) | 0.612 ± 0.02 | 0.00867 ± 0.00032 | viability at 50 µM [3]: 96%
16 | H2N-SXARAEVHLRKS-CONH2 [peptide 4, X = AMPB] |  |  | binding constant to WDR5 (in words) (WDR5Δ23; both isomers): not possible to obtain measurable binding constants
